Relative viability data for four cell lines are collected here from the supplement of paper PMC10307832.

What all share (test): relative viability (nuclei count vs DMSO), 5 days (fraction); higher = more cells survive
Compound in the test “Sulindac + Luminespib”: CC1=C(CC(=O)O)c2cc(F)ccc2/C1=C\c1ccc([S+](C)[O-])cc1 [Sulindac] + CCNC(=O)c1noc(-c2cc(C(C)C)c(O)cc2O)c1-c1ccc(CN2CCOCC2)cc1 [Luminespib] (partner 0.01 µM)
In short, it runs like this:
(§1)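 After 5 days of treatment, lung cancer cells in 1536-well plates were fixed and stained in a single step (final 0.05% Triton X-100, 1% formaldehyde, 1 ug/ml Hoechst) and their nuclei counted on 4× images. Treatment had been applied by pin tool the day after seeding as one drug alone or as a fixed anchor-drug dose with five library-drug doses (not always all listed) in √10 steps. Relative viability is the nuclei count of treated wells divided by that of vehicle wells, and values are medians of duplicate plates.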

Compound in test [1]: CN[C@@H]1C[C@H]2O[C@@](C)([C@@H]1OC)n1c3ccccc3c3c4c(c5c6ccccc6n2c5c31)C(=O)NC4 [Staurosporine] + Cc1cc(Nc2cc(N3CCN(C)CC3)nc(Sc3ccc(NC(=O)C4CC4)cc3)n2)n[nH]1 [Tozasertib] (partner 0.1 µM)
Put shortly:
as §1

Compound in test [2]: CN[C@@H]1C[C@H]2O[C@@](C)([C@@H]1OC)n1c3ccccc3c3c4c(c5c6ccccc6n2c5c31)C(=O)NC4 [Staurosporine] + N=C(N)NC(=N)NCCc1ccccc1 [Phenformin] (partner 250 µM)
Put shortly:
as §1

Compound in the test “Staurosporine + AZD7762”: CN[C@@H]1C[C@H]2O[C@@](C)([C@@H]1OC)n1c3ccccc3c3c4c(c5c6ccccc6n2c5c31)C(=O)NC4 [Staurosporine] + NC(=O)Nc1cc(-c2cccc(F)c2)sc1C(=O)N[C@H]1CCCNC1 [AZD7762] (partner 0.2 µM)
Put shortly: as §1

Turning to PC-3 [JPC-3], the relative viability with Sulindac + Luminespib (first compound 0.08 µM) stood at 0.663; with Sulindac + Luminespib (first compound 0.253 µM), 0.799; with Sulindac + Luminespib (first compound 0.8 µM) it was 0.528; with Sulindac + Luminespib (first compound 2.53 µM) it was 0.656; with Sulindac + Luminespib (first compound 8 µM) it was 0.771; in test [1] (first compound 0.005 µM) it was 0.919. Further, the relative viability in test [1] (first compound 0.01581 µM) came out at 0.598; in test [1] (first compound 0.05 µM) it was 0.512; in test [1] (first compound 0.1581 µM), 0.321; in test [1] (first compound 0.5 µM) it was 0.344; in test [2] (first compound 0.01581 µM), 0.394; in test [2] (first compound 0.05 µM) it was 0.352. The relative viability in test [2] (first compound 0.1581 µM) came out at 0.247; in test [2] (first compound 0.5 µM), 0.181; with Staurosporine + AZD7762 (first compound 0.005 µM) it was 0.829; with Staurosporine + AZD7762 (first compound 0.01581 µM), 0.472; with Staurosporine + AZD7762 (first compound 0.05 µM), 0.357; in the test with Staurosporine + AZD7762 (first compound 0.1581 µM) it was 0.327. The relative viability in the test with Staurosporine + AZD7762 (first compound 0.5 µM) turned out to be 0.332.

On to PC-14, for which the relative viability with Sulindac + Luminespib (first compound 0.08 µM) was 0.164; with Sulindac + Luminespib (first compound 0.253 µM) it was 0.152; with Sulindac + Luminespib (first compound 0.8 µM) it was 0.15; with Sulindac + Luminespib (first compound 2.53 µM), 0.152; with Sulindac + Luminespib (first compound 8 µM) it was 0.127; in test [1] (first compound 0.005 µM) it was 0.514. In addition, the relative viability in test [1] (first compound 0.01581 µM) came to 0.218; in test [1] (first compound 0.05 µM), 0.0637; in test [1] (first compound 0.1581 µM), 0.0512; in test [1] (first compound 0.5 µM) it was 0.0343; in test [2] (first compound 0.005 µM) it was 0.26; in test [2] (first compound 0.01581 µM), 0.129. Further, the relative viability in test [2] (first compound 0.05 µM) amounted to 0.0894; in test [2] (first compound 0.1581 µM), 0.0651; in test [2] (first compound 0.5 µM), 0.0636; with Staurosporine + AZD7762 (first compound 0.005 µM), 0.302; in the test with Staurosporine + AZD7762 (first compound 0.01581 µM), 0.0766; with Staurosporine + AZD7762 (first compound 0.05 µM) it was 0.0421. In addition, the relative viability in the test with Staurosporine + AZD7762 (first compound 0.1581 µM) came out at 0.0892; in the test with Staurosporine + AZD7762 (first compound 0.5 µM) it was 0.0415.

Consider RERF-LC-KJ, for which the relative viability with Sulindac + Luminespib (first compound 0.08 µM) is 1.06; in the test with Sulindac + Luminespib (first compound 0.253 µM), 1.47; in the test with Sulindac + Luminespib (first compound 0.8 µM) it was 1.18; in the test with Sulindac + Luminespib (first compound 2.53 µM) it was 1.23; in the test with Sulindac + Luminespib (first compound 8 µM), 1.64; in test [1] (first compound 0.005 µM) it was 0.414. Besides, the relative viability in test [1] (first compound 0.01581 µM) was 0.433; in test [1] (first compound 0.05 µM), 0.219; in test [1] (first compound 0.1581 µM), 0.178; in test [1] (first compound 0.5 µM), 0.176; in test [2] (first compound 0.005 µM), 0.209; in test [2] (first compound 0.01581 µM), 0.269. Further, the relative viability in test [2] (first compound 0.05 µM) is 0.225; in test [2] (first compound 0.1581 µM) it was 0.241; in test [2] (first compound 0.5 µM), 0.229; with Staurosporine + AZD7762 (first compound 0.005 µM), 1.07; in the test with Staurosporine + AZD7762 (first compound 0.01581 µM), 0.804; in the test with Staurosporine + AZD7762 (first compound 0.05 µM), 0.436. Further, the values for the relative viability with Staurosporine + AZD7762 (first compound 0.1581 µM) and in the test with Staurosporine + AZD7762 (first compound 0.5 µM) were 0.24 and 0.177, respectively.

Take SW 900: the relative viability is 0.176 in the test with Sulindac + Luminespib (first compound 0.253 µM); 0.156 with Sulindac + Luminespib (first compound 2.53 µM); 0.173 in the test with Sulindac + Luminespib (first compound 8 µM); 0.541 in test [1] (first compound 0.005 µM); 0.239 in test [1] (first compound 0.01581 µM); 0.246 in test [1] (first compound 0.05 µM). Moreover, the relative viability in test [1] (first compound 0.1581 µM) was found to be 0.206; in test [1] (first compound 0.5 µM), 0.162; in test [2] (first compound 0.005 µM) it was 0.364; in test [2] (first compound 0.01581 µM), 0.184; in test [2] (first compound 0.05 µM) it was 0.189; in test [2] (first compound 0.1581 µM), 0.111. In addition, the relative viability in test [2] (first compound 0.5 µM) is 0.127; in the test with Staurosporine + AZD7762 (first compound 0.005 µM), 0.413; in the test with Staurosporine + AZD7762 (first compound 0.01581 µM), 0.337; with Staurosporine + AZD7762 (first compound 0.05 µM) it was 0.31; with Staurosporine + AZD7762 (first compound 0.1581 µM) it was 0.157; in the test with Staurosporine + AZD7762 (first compound 0.5 µM), 0.151.
